Assay results from PMC5068727, “Low-dose oxytocin delivered intranasally with Breath Powered device affects social-cognitive behavior: a randomized four-way crossover trial with nasal cavity dimension assessment” (Translational Psychiatry, 2015).

Key:
Format in all cases: in vivo, human
healthy male adults [1] = assay: Social cognition task: emotional and trustworthiness ratings of facial images; conditions: 1 IU IV over 20 min, estimated mean (SE), linear mixed model, SEM
Description: Participants completed the social cognition task 40 min after treatment in a magnetic resonance imaging scanner while functional magnetic resonance imaging and physiology data were recorded (results to be reported separately). Participants were presented with visual stimuli through magnetic resonance imaging-compatible goggles (VisualSystem; NordicNeuroLab, Bergen, Norway) using E-Prime 2.0 (Psychology Software Tools, PA, USA) and responded using a grip response collection system (ResponseGrip, NordicNeuroLab).
For the primary emotional expression evaluation outcome measure, participants were presented with 20 male and 20 female faces (as used previously[55]) displaying angry, happy and emotionally ambiguous facial expressions (derived from the Karolinska Directed Emotional Faces database[56]) and 20 images of geometrical shapes (data not presented). Following each presentation, participants were asked either: How angry is this person? (anchors: not angry—very angry) or How happy is this person? (anchors: not happy—very happy). Q2 was always the same: How much would you trust this person? (anchors: not at all—very much). Participants were asked to rank their answer on a visual analog scale from 1 to 5, with location of the cursor on the visual analog scale randomized for each question. Mean ratings for each of the questions were averaged per session within each of the emotional categories, yielding seven behavioral variables (Q1: Happy face—happy, Happy face—angry, ambiguous face—happy, ambiguous face—angry, angry face—happy, angry face—angry; Q2: Trust). These stimuli and questions were chosen to assess three levels of emotion perception; ambiguous, non-ambiguous with corresponding cues and ratings (for example, angry ratings of angry faces) and non-ambiguous with conflicting cues and ratings (for example, angry ratings of happy faces).
(§1) Analysis was conducted using IBM SPSS Statistics version 22 (IBM, Armonk, NY, USA) to explore pharmacokinetics and examine the impact of treatment on outcome measures. A linear mixed-model (LMM) approach was adopted[58] for the analysis of emotional expression evaluation, pharmacokinetics, state anxiety and trustworthiness. In contrast to a repeated-measures analysis of variance approach, LMM allows for the inclusion of participants in the analysis even if data are missing for some of the treatment conditions. All the models were fitted using an unstructured matrix. For any significant main effects (that is, P<0.05), post hoc tests were performed with the adjustment of critical P-values to correct for multiple comparisons using a 5% false discovery rate.[59] Experimental treatment was both a fixed and repeated effect in the LMM testing the impact of treatment on emotion and trustworthiness ratings. To investigate the impact of treatment on anxiety and blood plasma concentration of OT, AVP and cortisol, an LMM was fitted with three fixed factors (treatment, time, treatment × time) and one repeated factor (treatment).

[2] = Oxytocin blood plasma concentration (ELISA); conditions: 1 IU IV over 20 min
Description: (§2) Blood samples were collected to assess peripheral levels of OT, AVP and cortisol at baseline and five time points after the completion of the 20-min IV administration (0, 10, 30, 60 and 120 mins) throughout the session. Up to two punctures with catheter placement were made to collect these blood samples, which were centrifuged at 4 °C within 5 min of blood draw with plasma frozen at −80 °C. Enzyme-linked immunosorbent assay using commercial kits (Enzo Life Sciences, Farmingdale, NY, USA) was performed using standard techniques (including sample extraction[57]).
as §1, with “Experimental treatment was both a fixed and repeated effect in the LMM testing the impact of treatment on emotion and trustworthiness ratings. To investigate the impact of treatment on anxiety and blood plasma concentration of OT, AVP and cortisol, an LMM was fitted with three fixed factors (treatment, time, treatment × time) and one repeated factor (treatment).” left out

cortisol = assay: Cortisol blood plasma concentration (ELISA); conditions: 1 IU IV, LMM pairwise comparison
Description: as §2, §1

healthy male adults [3] = assay: Self-reported adverse events; conditions: 1 IU IV; 16 healthy males, single dose
Description: At various points (−20, 0, 10, 30, 60 and 120 mins relative to start of functional magnetic resonance imaging) throughout testing, participants reported the presence and severity of any adverse effects.

[4] = Open label pilot study of peripheral OT pharmacokinetics; conditions: 5 participants, 1IU IV in 200ml 0.9% NaCl, 600ml/hour over 20 minutes, 30 to 60 minutes post-administration
Description: An open label pilot study comparing the pharmacokinetics of 24IU OPN-OT and 1IU IV-OT was conducted with 5 eligible participants (4 of these participants participated in the main study) to ensure that 1IU IV-OT would equal or exceed the serum exposure following IN-OT treatment. The IV OT (1IU) was mixed in 200ml 0.9% NaCl and administered at an infusion rate of 600ml/hour over 20 minutes. Blood was sampled just before administration (baseline) and at seven timepoints after completion of administration (10, 20, 30, 45, 60, 90, and 120 minutes). […] There was a one-month washout period, at the minimum, between participation in the pilot study and the experimental phase.

For CC[C@H](C)[C@@H]1NC(=O)[C@H](Cc2ccc(O)cc2)NC(=O)[C@@H](N)CSSC[C@@H](C(=O)N2CCC[C@H]2C(=O)N[C@@H](CC(C)C)C(=O)NCC(N)=O)NC(=O)[C@H](CC(N)=O)NC(=O)[C@H](CCC(N)=O)NC1=O [IV OT, oxytocin], the “Angry ratings of ambiguous faces” value (healthy male adults [1]; single dose, task 40 min after treatment, visual analog scale 1 to 5, 16 healthy males) was 2.32 (0.18), the Trustworthiness (healthy male adults [1]; collapsed across emotional categories, scale 1 to 5) was 3.16 (0.05) and the “Angry ratings of angry faces” value (healthy male adults [1]; scale 1 to 5) was 3.68 (0.2). The “Angry ratings of happy faces” value (healthy male adults [1]; scale 1 to 5) was 1.24 (0.02), the “Happy ratings of ambiguous faces” value (healthy male adults [1]; scale 1 to 5) was 2.38 (0.14) and the “Happy ratings of happy faces” value (healthy male adults [1]; scale 1 to 5) was 4.31 (0.13). The “Plasma OT concentration compared with placebo” value ([2]; baseline and 0, 10, 30, 60, 120 min, ELISA with extraction, LMM pairwise comparison, P<0.001) was “significantly increased”, the “Plasma OT concentration, simple effect for time” value ([2]; shortly after IV administration compared with all other time points, all P<0.001) was “significantly higher concentrations shortly after IV administration” and the “Cortisol blood plasma concentration compared with 8 IU OPN-OT” value (cortisol) was “but not 8 IU OPN-OT”. For the same molecule, the “Cortisol blood plasma concentration compared with 24 IU OPN-OT” value (cortisol; P<0.001) was “significantly increased”, the “Cortisol blood plasma concentration compared with placebo” value (cortisol; P=0.01) was “significantly increased” and the “Adverse events (for example, brief dizziness)” value (healthy male adults [3]) was “three”. For the same molecule, the “Peripheral (serum) OT levels relative to 24IU OPN-OT” value [4] was “reasonably approximated the levels achieved after 24IU OPN-OT administration”.
